# Read-outs that look alike come from different tables or passages of the source.
# What was measured:
# [1] = previously well-characterized AMPs; ref [9],[33]; cited from earlier work
# Procedure: OD measurements of human whole blood treated with hemolyzing agents or AMPs at 405 nm (A), 530 nm (B), and 570 nm (C) were recorded (Figure 6) and HRs calculated (Table 5). For comparison, we also included the two previously well-characterized AMPs melittin and polymyxin B, which exert high and low cytotoxicity, respectively. […] From 530 and 570 nm measurements, the expected conce ...
# [2] = system: washed human erythrocytes; assay: Hemolysis assay, washed human erythrocytes; settings: peptides 100 μM, 60 min 37 °C, pos. 10% Triton X-100, neg. PBS, 3 x 2 replicates
# Procedure: (§1) Blood is drawn from a human or an animal, and next, the washed erythrocytes are incubated together with the compound or material under investigation. If the compound causes hemolysis, hemoglobin (along with other cellular constituents) will be released into the supernatant.
# (§2) All blood was collected in Lithium Heparin tubes 4 mL (Greiner Bio-One, Kremsmünster, Austria) or Coagulation sodium citrate 3.2% tubes 3 mL (Greiner Bio-One).
# (§3) These three peptides were synthesized by Genscript Inc. (Piscataway, NJ, USA), and stock solutions of 1 mg/mL were made from the purchased powders. […] All peptides were diluted to yield a 100 μM final concentration in the hemolysis assays.
# (§4) Triton X-100 (T8787) and Tween-20 (P2287) detergents were purchased from Sigma Aldrich and diluted to obtain 10% stock solutions by weighing (w/v). A sodium Dodecyl Sulfate (SDS) 10% solution was purchased from Invitrogen (Waltham, MA, USA, 15553027). All subsequent dilutions annotated in figures were made from these stocks.
# (§5) As soon as possible after phlebotomy, the blood samples were centrifuged at 1700× g for 5 min. The supernatant was removed by aspiration and 2 mL of PBS pH 7 was added. The washing step was repeated three times or until the supernatant was clear. After final aspiration, the remaining pellet was diluted 1:100 in PBS pH 7 to obtain a 1% erythrocyte suspension (or 1:100, 1:50, and 1:20 for assays testing the effect of erythrocyte concentration). For experiments using whole blood, the washing steps were not performed, but downstream experimentation was identical. For experiments performed with 96-well plates, 50 μL of test compound, water, or detergent were mixed with 50 μL of blood sample (1% erythrocyte suspension or whole blood). For experiments using larger volumes, 250 μL of test compound, water, or detergent were mixed with 250 μL blood sample in an Eppendorf tube. Samples were subsequently incubated at 37 °C for 60 min (or 15, 30, 60, 90, or 120 min for assays evaluating the effect of incubation time). After incubation, the plates/tubes were centrifuged at 1700× g for 5 min, and then 50 μL of the supernatants were transferred to transparent, flat-bottom 96-well plates (Anicrin, A013418). Finally, absorption was measured at 405, 530, and 570 nm in a Victor Nivo Multimode microplate reader (Perkin Elmer, Waltham, MA, USA).
# human whole blood = settings: human whole blood, 60 min 37 °C; for Calculated hemolysis ratio: peptides 100 μM, neg. PBS, 3 x 2 replicates
# Procedure: as §1, §2, §3, §4, §5
structure (smiles),measurement,setting,value
"CC[C@H](C)[C@H](NC(=O)CN)C(=O)NCC(=O)N[C@@H](C)C(=O)N[C@H](C(=O)N[C@@H](CC(C)C)C(=O)N[C@@H](CCCCN)C(=O)N[C@H](C(=O)N[C@@H](CC(C)C)C(=O)N[C@H](C(=O)N[C@H](C(=O)NCC(=O)N[C@@H](CC(C)C)C(=O)N1CCC[C@H]1C(=O)N[C@@H](C)C(=O)N[C@@H](CC(C)C)C(=O)N[C@H](C(=O)N[C@@H](CO)C(=O)N[C@@H](Cc1c[nH]c2ccccc12)C(=O)N[C@H](C(=O)N[C@@H](CCCCN)C(=O)N[C@@H](CCCNC(=N)N)C(=O)N[C@@H](CCCCN)C(=O)N[C@@H](CCCNC(=N)N)C(=O)N[C@@H](CCC(N)=O)C(=O)N[C@@H](CCC(N)=O)C(N)=O)[C@@H](C)CC)[C@@H](C)CC)[C@@H](C)O)[C@@H](C)O)C(C)C)C(C)C [Melittin, reference compound]",Cytotoxicity (qualitative),[1],high
same,Calculated hemolysis ratio,"[2]; 1% washed human erythrocytes, OD 530 nm",78.4 ± 4.3%
same,Calculated hemolysis ratio,"[2]; 1% washed human erythrocytes, OD 570 nm",79.8 ± 8.2%
same,Calculated hemolysis ratio,"[2]; Table 6: 1% washed human erythrocytes, OD 405 nm",84.4 ± 8.1%
same,Blood clotting in whole blood,human whole blood; melittin 100 μM,clotting effect was also observed
same,Calculated hemolysis ratio,"human whole blood; OD 405 nm (signal saturated), pos. 10% SDS",98.3 ± 1.4%
same,Calculated hemolysis ratio,"human whole blood; OD 530 nm, pos. 10% SDS",36.6 ± 8.7%
same,Calculated hemolysis ratio,"human whole blood; OD 570 nm, pos. 10% Triton X-100 (table title; text says 10% SDS)",54 ± 15.5%
